Assay results: PubChem BioAssay (NCI)
Several values for one entry are separate records, joined by “and”; a condition that tells them apart may be missing. Equal values may be shown once.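 Test compounds were applied to cells in 96-well plates for 48 hours at 5 doses. At the GI50, growth is halved. The concentration for full growth arrest is given as TGI.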

System: SF-268 CNS
Test: DTP human tumour cell line panel, 48 h

Compound	TGI	GI50
NNC(=O)CNc1cccc(Br)c1	> 100 µM	–
N#CC(C(=O)/C(=N\NC(N)=O)C(C#N)c1ccc(Cl)cc1)c1ccc(Cl)cc1 (stereo unspecified)	> 100 µM	–
CC(C)(C)c1cc(C(P(=O)(O)O)P(=O)(O)O)cc(C(C)(C)C)c1O	> 100 µM	–
CC(C)C1=Cc2ccc3c(c2C(=O)C1=O)CCCC3(C)C	20.2 µM	–
Nc1ncn([C@@H]2O[C@H](CO)[C@@H](O)[C@H]2O)c(=O)n1	34.7 µM	2.14 µM
CSc1nc(SC)c2c(C#N)[nH]nc2n1	> 100 µM	–
COc1c(O)c2c(=O)cc3c4c5c(cc(=O)c6c(O)c(OC)c(CC(C)O)c(c(c1CC(C)O)c24)c65)OCO3 (stereo unspecified)	5.97 µM	–
CC(=O)Nc1ccc(-c2csc(Nc3cccc(-c4csc(C)n4)c3)n2)cc1	> 27.1 µM	4.38 µM
COc1ccc(CCN(C)C2CCC(C#N)(c3ccc(OC)c(OC)c3)CC2)cc1OC (stereo unspecified)	> 100 µM	–
COc1ccc(C(=O)Nc2ccc(O)c(=O)cc2)cc1	63.4 µM	–
CCOC(=O)c1nc2c(OC)nn(O)cc-2c1[N+](=O)[O-]	94.9 µM	–
C/C(CC(=O)Nc1ccc(C)c(C)c1)=N\N(c1ccccc1)c1ccccc1	> 100 µM	–
COC(=O)/C(=N\NC(N)=S)C(C(=O)OC)C(=O)C(=O)Nc1ccc(C)cc1 (stereo unspecified)	> 100 µM	–
O=C1CCC2(c3ccc(Cl)cc3)Nc3cc(Cl)ccc3N12 (stereo unspecified)	25.8 µM	–
O=C(/C(=C/c1ccc(Cl)cc1)c1ccccc1)c1ccccc1	41.8 µM	–
CC1(C)COC(c2cccc3c2C(=O)c2cccc(Cl)c2-3)=N1	> 100 µM	–
CN(C)CCC(/C=C/c1ccccc1)=N\Nc1ccccc1	10.4 µM	–
c1ccc2c(OCCSCCCCCCCCCCSCCOc3cccc4ccccc34)cccc2c1	> 100 µM	–
NC(N)=N/N=C/c1c(Cl)cccc1Cl	89.4 µM	23.9 µM
Cc1cc2c(=O)c3ccccc3[nH]c2c(C(N)=O)c1C	> 100 µM	–
O=C(Nc1cccc(C(F)(F)F)c1)c1ccc(NC2=C(Cl)C(=O)N(Cc3ccc(Cl)cc3Cl)C2=O)cc1	35.5 µM	11 µM
CN1CCC(=O)/C(=C/c2ccccc2)C1	43.2 µM	–

System: MOLT-4 leukemia
Test: DTP human tumour cell line panel, 48 h

Compound	TGI	GI50
COC(=O)C(=Cc1cc(OC)c(OC)c(OC)c1-c1cc2c(cc1C1(C)OCCS1)OCO2)C(=O)OC (stereo unspecified)	> 100 µM	–
C#CC1/C(=C\C(=O)OC)CCCC1O (stereo unspecified)	> 100 µM	–
CC12CCC(=O)C[C@H]1CCC(OC=O)C2Br (stereo partly specified)	> 100 µM	–
Clc1cc2c(c(CSc3nc4ccccc4n4cccc34)c1)OCOC2	> 100 µM	> 100 µM
CN1CCN(c2ccc(Nc3cc(-c4cccc(-n5ccc6cc(C7CC7)cc(F)c6c5=O)c4CO)cn(C)c3=O)nc2)CC1	19.1 µM	3.73 µM
COc1ccc(OCC(=O)O)c2c1CCCC2=O	> 100 µM	–
Cc1nc(Nc2ccc(Cl)cc2)sc1C(=O)NNC(=S)NN	58.6 µM	–
CCOC(=O)N[C@H]1CCc2cc(OC)c(OC)c(OC)c2-c2ccc(SC)c(=O)cc21	> 100 µM	–
COc1ccc2c(c1OCC(=O)O)C(=O)C(CCC(=O)O)CC2 (stereo unspecified)	> 100 µM	–
Cc1ccc2nc(/C(=C/c3ccc(/C=C(\NC(=O)c4ccccc4)c4nc5ccc(C)cc5[nH]4)c(C)c3)NC(=O)c3ccccc3)[nH]c2c1	26.7 µM	–
COC1C(OC(=S)Nc2ccccc2)c2ccccc2N1C(C)=O (stereo unspecified)	> 100 µM	–
O=C(Nc1cccc(Cl)c1)C(=O)C(C(=O)c1ccc2ccccc2c1)C1OC(=O)c2ccccc21 (stereo unspecified)	23.6 µM	–
CC(C)(/C=C(\C#N)C(=O)N1CCC[C@@H](n2nc(-c3ccc(Oc4ccccc4)cc3F)c3c(N)ncnc32)C1)N1CCN(C2COC2)CC1	13.7 µM	2.94 µM
Cc1ccc(C)c(NC(=O)c2cccc([N+](=O)[O-])c2O)c1	> 100 µM	–
COCC(OC)C(CC=C(C#N)C#N)OC (stereo unspecified)	> 100 µM	–
NC1CCN(Cc2ccccc2)CC1	> 100 µM	> 100 µM
On1c(-c2ccccc2)c(-c2ccccc2N2CCCC2)c2ccccc21	> 100 µM	–
N#CC(C(=O)/C(=N\NC(N)=O)C(C#N)c1ccc(Cl)cc1)c1ccc(Cl)cc1 (stereo unspecified)	> 100 µM	–
CC(C)(C)c1cc(C(P(=O)(O)O)P(=O)(O)O)cc(C(C)(C)C)c1O	> 100 µM	–

Compound	TGI	GI50
Nc1ncn([C@@H]2O[C@H](CO)[C@@H](O)[C@H]2O)c(=O)n1	32.1 µM	3.41 µM
CSc1nc(SC)c2c(C#N)[nH]nc2n1	> 100 µM	–
COc1c(O)c2c(=O)cc3c4c5c(cc(=O)c6c(O)c(OC)c(CC(C)O)c(c(c1CC(C)O)c24)c65)OCO3 (stereo unspecified)	4.44 µM	–
CC(=O)Nc1ccc(-c2csc(Nc3cccc(-c4csc(C)n4)c3)n2)cc1	> 50 µM	–
COc1ccc(CCN(C)C2CCC(C#N)(c3ccc(OC)c(OC)c3)CC2)cc1OC (stereo unspecified)	> 100 µM	–
CCOC(=O)c1nc2c(OC)nn(O)cc-2c1[N+](=O)[O-]	75.1 µM	–
C/C(CC(=O)Nc1ccc(C)c(C)c1)=N\N(c1ccccc1)c1ccccc1	> 100 µM	–
COC(=O)/C(=N\NC(N)=S)C(C(=O)OC)C(=O)C(=O)Nc1ccc(C)cc1 (stereo unspecified)	> 100 µM	–
O=C(OC1CCC(=C2SCCCS2)[C@H]1C1SCCCS1)c1ccccc1 (stereo partly specified)	> 100 µM	–
O=C(/C(=C/c1ccc(Cl)cc1)c1ccccc1)c1ccccc1	47 µM	–
CC1(C)COC(c2cccc3c2C(=O)c2cccc(Cl)c2-3)=N1	> 100 µM	–
CN(C)CCC(/C=C/c1ccccc1)=N\Nc1ccccc1	15 µM	–
CCOC(=O)c1ccc(/C(C)=N/NC(N)=S)cc1	> 100 µM	–
c1ccc2c(OCCSCCCCCCCCCCSCCOc3cccc4ccccc34)cccc2c1	> 100 µM	–
NC(N)=N/N=C/c1c(Cl)cccc1Cl	74.5 µM	28.2 µM
Cc1cc2c(=O)c3ccccc3[nH]c2c(C(N)=O)c1C	> 100 µM	–
O=C(Nc1cccc(C(F)(F)F)c1)c1ccc(NC2=C(Cl)C(=O)N(Cc3ccc(Cl)cc3Cl)C2=O)cc1	6.8 µM	1.31 µM
CN1CCC(=O)/C(=C/c2ccccc2)C1	34.3 µM	–

System: SK-OV-3 ovarian
Test: DTP human tumour cell line panel, 48 h

Compound	TGI	GI50
COC(=O)C(=Cc1cc(OC)c(OC)c(OC)c1-c1cc2c(cc1C1(C)OCCS1)OCO2)C(=O)OC (stereo unspecified)	> 100 µM	–
C#CC1/C(=C\C(=O)OC)CCCC1O (stereo unspecified)	> 100 µM	–
CC12CCC(=O)C[C@H]1CCC(OC=O)C2Br (stereo partly specified)	> 100 µM	–
Clc1cc2c(c(CSc3nc4ccccc4n4cccc34)c1)OCOC2	45 µM	13.7 µM
CN1CCN(c2ccc(Nc3cc(-c4cccc(-n5ccc6cc(C7CC7)cc(F)c6c5=O)c4CO)cn(C)c3=O)nc2)CC1	29.5 µM	14.6 µM
COc1ccc(OCC(=O)O)c2c1CCCC2=O	> 100 µM	–
Cc1nc(Nc2ccc(Cl)cc2)sc1C(=O)NNC(=S)NN	54 µM	–
CCOC(=O)N[C@H]1CCc2cc(OC)c(OC)c(OC)c2-c2ccc(SC)c(=O)cc21	26.8 µM and > 100 µM	< 0.01 µM
COc1ccc2c(c1OCC(=O)O)C(=O)C(CCC(=O)O)CC2 (stereo unspecified)	> 100 µM	–
Cc1ccc2nc(/C(=C/c3ccc(/C=C(\NC(=O)c4ccccc4)c4nc5ccc(C)cc5[nH]4)c(C)c3)NC(=O)c3ccccc3)[nH]c2c1	> 100 µM	–
O=C(Nc1cccc(Cl)c1)C(=O)C(C(=O)c1ccc2ccccc2c1)C1OC(=O)c2ccccc21 (stereo unspecified)	> 100 µM	–
CC1=Cc2cccc(C)c2C(=O)C1=O	36.8 µM	–
Cc1ccc(C)c(NC(=O)c2cccc([N+](=O)[O-])c2O)c1	> 100 µM	–
COCC(OC)C(CC=C(C#N)C#N)OC (stereo unspecified)	> 100 µM	–
NC1CCN(Cc2ccccc2)CC1	> 100 µM	> 100 µM
On1c(-c2ccccc2)c(-c2ccccc2N2CCCC2)c2ccccc21	> 100 µM	–
NNC(=O)CNc1cccc(Br)c1	> 100 µM	–
N#CC(C(=O)/C(=N\NC(N)=O)C(C#N)c1ccc(Cl)cc1)c1ccc(Cl)cc1 (stereo unspecified)	> 100 µM	–
CC(C)(C)c1cc(C(P(=O)(O)O)P(=O)(O)O)cc(C(C)(C)C)c1O	> 100 µM	–
CC(C)C1=Cc2ccc3c(c2C(=O)C1=O)CCCC3(C)C	32 µM	–
Nc1ncn([C@@H]2O[C@H](CO)[C@@H](O)[C@H]2O)c(=O)n1	5.46 µM	1.14 µM
CSc1nc(SC)c2c(C#N)[nH]nc2n1	> 100 µM	–
COc1c(O)c2c(=O)cc3c4c5c(cc(=O)c6c(O)c(OC)c(CC(C)O)c(c(c1CC(C)O)c24)c65)OCO3 (stereo unspecified)	20.4 µM	–
CC(=O)Nc1ccc(-c2csc(Nc3cccc(-c4csc(C)n4)c3)n2)cc1	19.1 µM	2.38 µM
COc1ccc(CCN(C)C2CCC(C#N)(c3ccc(OC)c(OC)c3)CC2)cc1OC (stereo unspecified)	> 100 µM	–
